Source: patent publication US20260007667A1, “TOPICAL ECTODERMAL STIMULATION” (SOLIFON PHARMACEUTICALS, INC., priority 2022, published 2026)

Tested on: patients suffering hair loss and numbness due to diabetic neuropathy
Assay: Repetitive topical application of minoxidil in patients suffering hair loss and numbness due to diabetic neuropathy
Format: in vivo
Conditions: twice a day, approximately 1 mL per day, 2-5% minoxidil
Description: In an illustrative test with repetitive topical application of minoxidil as a VGIA 120a in patients suffering hair loss and numbness due to diabetic neuropathy, hair growth, nail growth, and temperature perception (restoration of innervation) was achieved on the leg within 2-3 weeks. The minoxidil was applied twice a day in a quantity of approximately 1 mL per day in a concentration of 2-5% minoxidil.

Nc1cc(N2CCCCC2)nc(N)[n+]1[O-] [minoxidil]
2-3 weeks: hair growth achieved on the leg (time) | temperature perception (restoration of innervation) achieved on the leg (time) | nail growth achieved (time) (leg)
